Laboratory results: patent US20110172296A1, “MODULATION OF TRANSFORMING GROWTH FACTOR-BETA 1 EXPRESSION” (priority 2010, published 2011)
e = 2'-O-(2-methoxyethyl) (MOE); d = 2'-deoxy (DNA)

System: human TGF-beta1 mRNA
Test: Dose-dependent confirmation of antisense inhibition of human TGF-beta1 in HuVEC cells after large-scale synthesis, Lipofectamine 2000, 0.007-15 nM (Example 5)
Type: cell-based
Details: for percent inhibition of TGF-beta1: Lipofectamine 2000
Protocol: Cells were plated at a density of 5,000 cells per well and transfected using Lipofectamine™ 2000 reagent with 0.007 nM, 0.021 nM, 0.062 nM, 0.185 nM, 0.556 nM, 1.667 nM, 5 nM, and 15 nM concentrations of antisense oligonucleotide for 4 hours, as specified in Table 5. After a recovery period of approximately 16 hours, RNA was isolated from the cells and TGF-beta1 mRNA levels were measured by quantitative real-time PCR. Human TGF-beta1 primer probe set RTS 2980 was used to measure mRNA levels. TGF-beta1 mRNA levels were adjusted according to total RNA content, as measured by RIBOGREEN®. Results are presented as percent inhibition of TGF-beta1, relative to untreated control cells.

With “414036 (antisense GTGTCCTTAAATACAGCCCC; sugars from the 5' end e2 d13 e5, backbone and methylation of C not given here) [compound 414036]” the “percent inhibition of TGF-beta1” value (0.007 nM) was 5%, the “percent inhibition of TGF-beta1” value (0.021 nM) was 26% and the “percent inhibition of TGF-beta1” value (0.062 nM) was 41%. For the same substance, the “percent inhibition of TGF-beta1” value (0.185 nM) was 58%, the “percent inhibition of TGF-beta1” value (0.556 nM) was 73% and the “percent inhibition of TGF-beta1” value (1.667 nM) was 84%. For the same substance, the “percent inhibition of TGF-beta1” value (5 nM) was 91%, the “percent inhibition of TGF-beta1” value (15 nM) was 90% and the IC50 (Lipofectamine 2000, Example 5) was 0.15 nM.
